We go through one compound from PMC4921870, “The insect repellent N,N-diethyl-m-toluamide (DEET) induces angiogenesis via allosteric modulation of the M3 muscarinic receptor in endothelial cells” (Scientific Reports, 2016).

This test addresses T1, M3 muscarinic receptor (Homo sapiens, UniProt P20309).
T1 construct: gene CHRM3; recombinant M3 receptor expressed in HEK-293 cells (HEK-293/M3)
Nature of the test: leftward shift of carbachol Ca2+ response in HEK-293/M3 cells (fluo-4); [3H]-4-DAMP not displaced. It counts as cell-based.

T1 sequence (P20309 whole entry): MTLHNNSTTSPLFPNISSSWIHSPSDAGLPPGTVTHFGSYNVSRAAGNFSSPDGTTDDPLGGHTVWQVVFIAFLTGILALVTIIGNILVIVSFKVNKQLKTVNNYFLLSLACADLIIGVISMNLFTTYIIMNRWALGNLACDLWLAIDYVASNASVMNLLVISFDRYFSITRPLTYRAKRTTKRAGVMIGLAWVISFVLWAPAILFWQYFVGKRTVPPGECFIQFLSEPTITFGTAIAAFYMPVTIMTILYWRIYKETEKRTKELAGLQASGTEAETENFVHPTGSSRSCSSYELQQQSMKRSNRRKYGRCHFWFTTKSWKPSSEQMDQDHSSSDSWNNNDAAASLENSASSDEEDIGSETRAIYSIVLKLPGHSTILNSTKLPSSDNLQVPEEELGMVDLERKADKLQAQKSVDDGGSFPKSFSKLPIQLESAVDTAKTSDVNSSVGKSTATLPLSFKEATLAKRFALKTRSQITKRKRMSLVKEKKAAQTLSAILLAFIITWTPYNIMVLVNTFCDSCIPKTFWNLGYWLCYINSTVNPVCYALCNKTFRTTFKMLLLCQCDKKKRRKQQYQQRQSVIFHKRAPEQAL

With `CCN(CC)C(=O)c1cccc(C)c1` [DEET, N,N-diethyl-meta-toluamide], the “leftward shift of carbachol Ca2+ response in HEK-293/M3 cells (fluo-4); [3H]-4-D” value is recorded as “Whatever the concentration of DEET used, it was able to induce a leftward shift of the calcium response induced by carbachol”.
